Publication PMC11091220, “Metabolism-driven in vitro/in vivo disconnect of an oral ERɑ VHL-PROTAC” (Communications Biology, 2024)
Where “and” joins values, the source holds several entries; their conditions need not be identical. Identical values can stand only once. Like-named read-outs stand apart in the source and are kept apart here.

Experiments:
[1] = Mouse pharmacokinetics, i.v./oral and enabling formulations; type: in vivo
Procedure: (*) AUC0-6 (data BLQ beyond 6 hours). TEXT PRINTED IN THE PICTURE: (e) Formulation SF: Dose normalised Cmax (μM): 0.009 (Oral dose (mg/kg): 1); Dose normalised AUC0-12 (μM.h): 0.02* (Oral dose (mg/kg): 1) | (e) Formulation EF1: Dose normalised Cmax (μM): 0.023 (Oral dose (mg/kg): 100); Dose normalised AUC0-12 (μM.h): 0.22 (Oral dose (mg/kg): 100) | (e) Formulation EF2: Dose normalised Cmax (μM): 0.002 (Oral dose (mg/kg): 100); Dose normalised AUC0-12 (μM.h): 0.009 (Oral dose (mg/kg): 100) | (e) Formulation EF3: Dose normalised Cmax (μM): 0.045 (Oral dose (mg/kg): 100); Dose normalised AUC0-12 (μM.h): 0.12 (Oral dose (mg/kg): 100); Dose normalised Cmax (μM): 0.016 (Oral dose (mg/kg): 30); Dose normalised AUC0-12 (μM.h): 0.06* (Oral dose (mg/kg): 30); Dose normalised Cmax (μM): 0.017 (Oral dose (mg/kg): 10); Dose normalised AUC0-12 (μM.h): 0.06* (Oral dose (mg/kg): 10) | (e) Formulation EF4: Dose normalised Cmax (μM): 0.022 (Oral dose (mg/kg): 100); Dose normalised AUC0-12 (μM.h): 0.10 (Oral dose (mg/kg): 100) | (e) Formulation EF5: Dose normalised Cmax (μM): 0.050 (Oral dose (mg/kg): 100); Dose normalised AUC0-12 (μM.h): 0.25 (Oral dose (mg/kg): 100); Dose normalised Cmax (μM): 0.013 (Oral dose (mg/kg): 30); Dose normalised AUC0-12 (μM.h): 0.045* (Oral dose (mg/kg): 30); Dose normalised Cmax (μM): 0.023 (Oral dose (mg/kg): 10); Dose normalised AUC0-12 (μM.h): 0.076* (Oral dose (mg/kg): 10)
Each plasma sample ([…]) was prepared using an appropriate dilution factor, and compared against an 11-point standard calibration curve (1-10000 nM) prepared in DMSO and spiked into blank plasma. Acetonitrile ([…]) was added with the internal standard, followed by centrifugation at 3000 rpm for 10 minutes. The supernatant ([…]) was then diluted in […] acetonitrile:water (75:25) and analyzed via UPLC-MS/MS.
The MS/MS instrument used was either a Waters XEVO® TQ-S, Waters XEVO® TQ-D, or API 4000 (AB Sciex). The ultra-mass spectrometer used for sample analysis was completed in the MRM mode (MS/MS). Reverse-phase HPLC with a C18 column was used to separate the analytes. A mobile phase of 99% water/0.1% formic acid (solvent A) and a solvent phase of 99% acetonitrile/0.1% formic acid (solvent B) was used. A generic LC gradient elution was used at a flow rate of 0.5 mL/min with 95% solvent A and 5% solvent B for 0.3 min after which the concentration of solvent B was increased to 95% over 0.9 min before restoring it back to 5% for the remaining 0.5 min. Mass spectrometer methods were optimised for each compound.

[2] = system: CTC174 patient-derived xenograft (PDX) model; test: Efficacy study in CTC174 PDX model, tumour growth; type: in vivo, mouse
Procedure: CTC174 (ER/PR positive, HER2-negative patient-derived xenograft (PDX) model) studies were conducted following implantation of a tumour fragment in female NSG mice; established tumours were removed from donor mice and dissected into 3x3x3 mm pieces in RPMI 1640 media. Female NOD scid gamma (NSG) mice were anesthetized using 2% isoflurane, a small incision was made through the skin, 0.5 cm dorsally to the third nipple, and a tumour fragment was inserted between the skin layer and the third mammary fat pad. The skin was closed with surgical glue (VetBond, 3 M).
Mice were randomised into groups of 8-10 once tumour sizes reached approximately 0.2 cm^3. AZ’6421 was dosed orally at 30 mg/kg QD or 100 mg/kg BID using EF3, alongside a vehicle control. AZD9833 was dosed at 10 mg/kg PO, QD. Tumours were measured twice per week and changes in tumour volume and growth inhibition were determined by bilateral Vernier caliper measurement (length x width), where length was taken to be the longest diameter across the tumour and width the corresponding perpendicular. Tumour volume was calculated using the formula (length x width) x √ (length x width) x π/6). Tumour growth inhibition from the start of the study to the final day of tumour measurement was assessed by comparison of the geometric mean change in tumour volume for the control and treated groups. Tumour regression was calculated as the percentage reduction in tumour volume from baseline (pre-treatment) value (where relative tumour volume [RTV] = geometric mean RTV): %regression=(1−RTV)×100% Statistical significance was evaluated using a one-tailed t-test compared to vehicle control at the day of final tumour measures.

Compound: Cc1ncsc1-c1ccc(CNC(=O)[C@@H]2C[C@@H](O)CN2C(=O)[C@@H](NC(=O)COCCCOCCCOc2cc(F)c([C@@H]3c4[nH]c5ccccc5c4C[C@@H](C)N3CC(C)(C)F)c(F)c2)C(C)(C)C)cc1 [Compound 5]
- Plasma conc (total) ([1]; IV 0.5 mg/kg, mouse, 0.03 h, listed as AZ'6421, 0.5 mg/kg): 1770 nM
- Plasma conc (total) ([1]; IV 0.5 mg/kg, 0.17 h, listed as AZ'6421, 0.5 mg/kg): 219 nM
- Plasma conc (total) ([1]; IV 0.5 mg/kg, 0.5 h, listed as AZ'6421, 0.5 mg/kg): 58.2 nM
- Plasma conc (total) ([1]; IV 0.5 mg/kg, 1 h, listed as AZ'6421, 0.5 mg/kg): 27.9 nM
- Plasma conc (total) ([1]; IV 0.5 mg/kg, 2 h, listed as AZ'6421, 0.5 mg/kg): 15.2 nM
- Plasma conc (total) ([1]; IV 0.5 mg/kg, 4 h, listed as AZ'6421, 0.5 mg/kg): 6.74 nM
- Plasma conc (total) ([1]; IV 0.5 mg/kg, 6 h, listed as AZ'6421, 0.5 mg/kg): 4.38 nM
- Plasma conc (total) ([1]; IV 0.5 mg/kg, 8 h, listed as AZ'6421, 0.5 mg/kg): 2.82 nM
- Plasma conc (total) ([1]; Oral 1 mg/kg in SF, mouse, 0.5 h, listed as AZ'6421, 1 mg/kg): 4.03 nM
- Plasma conc (total) ([1]; Oral 1 mg/kg in SF, 1 h, listed as AZ'6421, 1 mg/kg): 6.69 nM
- concentration at 0.03 h ([1]; mouse, plasma, iv, 0.5 mg/kg, IV 0.5 mg/kg, mouse, 0.03 h, read-out: Plasma conc (total)): 1990 nM
- concentration at 0.17 h ([1]; mouse, plasma, iv, 0.5 mg/kg, IV 0.5 mg/kg, 0.17 h, read-out: Plasma conc (total)): 261 nM
- concentration at 0.5 h ([1]; mouse, plasma, iv, 0.5 mg/kg, IV 0.5 mg/kg, 0.5 h, read-out: Plasma conc (total)): 89 nM
- concentration at 1 h ([1]; mouse, plasma, iv, 0.5 mg/kg, IV 0.5 mg/kg, 1 h, read-out: Plasma conc (total)): 41.9 nM
- concentration at 2 h ([1]; mouse, plasma, iv, 0.5 mg/kg, IV 0.5 mg/kg, 2 h, read-out: Plasma conc (total)): 16.9 nM
- concentration at 4 h ([1]; mouse, plasma, iv, 0.5 mg/kg, IV 0.5 mg/kg, 4 h, read-out: Plasma conc (total)): 7.09 nM
- concentration at 6 h ([1]; mouse, plasma, iv, 0.5 mg/kg, IV 0.5 mg/kg, 6 h, read-out: Plasma conc (total)): 3.27 nM
- concentration at 8 h ([1]; mouse, plasma, iv, 0.5 mg/kg, IV 0.5 mg/kg, 8 h, read-out: Plasma conc (total)): 2.02 nM
- clearance ([1]; mouse, plasma, iv, 0.5 mg/kg i.v., read-out: mouse in vivo clearance): 22 mL/min/kg
- concentration at 0.5 h ([1]; mouse, plasma, po, 1 mg/kg, Oral 1 mg/kg in SF, mouse, 0.5 h, read-out: Plasma conc (total)): 2.24 nM
- concentration at 1 h ([1]; mouse, plasma, po, 1 mg/kg, Oral 1 mg/kg in SF, 1 h, read-out: Plasma conc (total)): 9.06 nM
- concentration at 4 h ([1]; mouse, plasma, po, 1 mg/kg, Oral 1 mg/kg in SF, 4 h, read-out: Plasma conc (total)): 2.98 nM
- AUC ([1]; plasma, po, 1 mg/kg p.o., SF, mouse, read-out: oral exposure (AUC)): 0.02 µM·h
- effect on tumour growth ([2]; 30 mg/kg QD, CTC174 PDX): no significant effect on tumour growth
- individual tumour volume relative to day 0 ([2]; 30mg/kg, day 0): 1
- individual tumour volume relative to day 0 ([2]; 30mg/kg, day 3, listed as AZ'6421): 0.7122 and 1.194
- individual tumour volume relative to day 0 ([2]; 30mg/kg, day 24, listed as AZ'6421): 0.687 and 1.553 and 0.9229 and 3.138 and 3.998 and 5.933 and 2.313 and 1.402
- individual tumour volume relative to day 0 ([2]; 30mg/kg, day 28, listed as AZ'6421): 0.8313 and 2.512 and 0.8896 and 2.922 and 2.315 and 6.135 and 3.14 and 1.905
- individual tumour volume relative to day 0 ([2]; 30mg/kg, day 31, listed as AZ'6421): 0.7668 and 3.025 and 1.034 and 3.595 and 3.598 and 7.563 and 4.273 and 1.656
- individual tumour volume relative to day 0 ([2]; 30mg/kg, day 32, listed as AZ'6421): 0.5475 and 2.09 and 0.9038 and 4.599 and 4.337 and 8.487 and 4.5171 and 1.317
- individual tumour volume relative to day 0 ([2]; 30mg/kg, day 35, listed as AZ'6421): 0.7044 and 2.34 and 1.039 and 4.934 and 5.34 and 5.3436 and 1.76
- tumour growth inhibition ([2]; 100 mg/kg BID, CTC174 PDX): 86%
- individual tumour volume relative to day 0 ([2]; 100mg/kg BID, day 0): 1
- individual tumour volume relative to day 0 ([2]; 100mg/kg BID, day 3, listed as AZ'6421): 0.8229 and 1.103 and 0.6717 and 0.9409 and 1.283 and 1.22 and 0.8606
- individual tumour volume relative to day 0 ([2]; 100mg/kg BID, day 24, listed as AZ'6421): 0.798 and 1.29 and 1.172 and 1.123 and 1.125 and 1.792 and 0.9657 and 0.7632
- individual tumour volume relative to day 0 ([2]; 100mg/kg BID, day 28, listed as AZ'6421): 1.185 and 1.364 and 1.661 and 0.8768 and 1.158 and 1.79 and 0.955
- individual tumour volume relative to day 0 ([2]; 100mg/kg BID, day 31, listed as AZ'6421): 1.384 and 1.261 and 1.388 and 0.978 and 1.011 and 2 and 1.056
- individual tumour volume relative to day 0 ([2]; 100mg/kg BID, day 32, listed as AZ'6421): 1.118 and 1.021 and 1.453 and 0.5782 and 0.607 and 1.779 and 0.9427
- individual tumour volume relative to day 0 ([2]; 100mg/kg BID, day 35, listed as AZ'6421): 0.7796 and 0.7051 and 1.086 and 0.6654 and 0.8654 and 1.332 and 0.777
